{"source": "patent US20240300988A1", "about": "“CRYSTALLINE FORMS OF PENTAAZA MACROCYCLIC RING COMPLEX” (Galera Labs, LLC, priority 2023, published 2024)", "origin": "cited, not measured here", "system": "VEGFr inhibitor-induced pulmonary disease", "settings": "rat model; Tuder et al., Am. J. Respir. Cell Mol. Biol., 29, 88-97 (2003)", "data": [{"molecule": "[Cl][Mn][Cl].c1cc2nc(c1)CN[C@H]1CCCC[C@@H]1NCCN[C@H]1CCCC[C@@H]1NC2", "note": "[GC4419]", "values": [{"measurement": "effect on VEGFr inhibitor-induced pulmonary disease", "result": "attenuate VEGFr inhibitor-induced pulmonary disease"}]}]}
